In assay [1] the test system is Zymoseptoria tritici. Briefly: Fungicidal activity: leaf blotch of wheat (SEPTTR), disease control on wheat seedlings. The assay is classed as in vivo. The following applies: for pest or weed control at 100 ppm: high volume application; for pest or weed control at 121.5 g/ha: low volume application, 121.5 g/H. The protocol: Technical grades of materials were dissolved in acetone, which were then mixed with nine volumes of water (H2O) containing 110 ppm Triton X-100. The fungicide solutions were applied onto wheat seedlings using an automated booth sprayer to run-off. All sprayed plants were allowed to air dry prior to further handling. All fungicides were evaluated using the aforementioned method for their activity vs. all target diseases, unless stated otherwise. Wheat leaf blotch and brown rust activity were also evaluated using track spray applications, in which case the fungicides were formulated as EC formulations, containing 0.1% Trycol 5941 in the spray solutions. Wheat plants (variety Yuma) were grown from seed in a greenhouse in 50% mineral soil/50% soil-less Metro mix until the first leaf was fully emerged, with 7-10 seedlings per pot. These plants were inoculated with an aqueous spore suspension of Zymoseptoria tritici either prior to or after fungicide treatments. After inoculation the plants were kept in 100% relative humidity (one day in a dark dew chamber followed by two to three days in a lighted dew chamber at 20° C.) to permit spores to germinate and infect the leaf. The plants were then transferred to a greenhouse set at 20° C. for disease to develop. When disease symptoms were fully expressed on the 1st leaves of untreated plants, infection levels were assessed on a scale of 0 to 100 percent disease severity. Percent disease control was calculated using the ratio of disease severity on treated plants relative to untreated plants.

The subject of assay [2] is Puccinia triticina. Briefly: Fungicidal activity: wheat brown rust (PUCCRT), disease control on wheat seedlings. The assay is classed as in vivo. The settings on record: for pest or weed control at 100 ppm: high volume application; for pest or weed control at 121.5 g/ha: low volume application, 121.5 g/H. The protocol: Technical grades of materials were dissolved in acetone, which were then mixed with nine volumes of water (H2O) containing 110 ppm Triton X-100. The fungicide solutions were applied onto wheat seedlings using an automated booth sprayer to run-off. All sprayed plants were allowed to air dry prior to further handling. All fungicides were evaluated using the aforementioned method for their activity vs. all target diseases, unless stated otherwise. Wheat leaf blotch and brown rust activity were also evaluated using track spray applications, in which case the fungicides were formulated as EC formulations, containing 0.1% Trycol 5941 in the spray solutions. Wheat plants (variety Yuma) were grown from seed in a greenhouse in 50% mineral soil/50% soil-less Metro mix until the first leaf was fully emerged, with 7-10 seedlings per pot. These plants were inoculated with an aqueous spore suspension of Puccinia triticina either prior to or after fungicide treatments. After inoculation the plants were kept in a dark dew room at 22° C. with 100% relative humidity overnight to permit spores to germinate and infect the leaf. The plants were then transferred to a greenhouse set at 24° C. for disease to develop. Fungicide formulation, application and disease assessment followed the procedures as described in the Example A. Results of the evaluations are shown below in Table 4.

Where [3] appears, read: 24 h, 1 day protectant, read-out: SEPTTR disease control, 1DP, HV activity at 100 ppm.
Where [4] appears, read: 24 h, 1 day protectant, read-out: SEPTTR disease control, 1DP, LV activity at 121.5 g/H.
Where [5] appears, read: 72 h, 3 day curative, read-out: SEPTTR disease control, 3DC, HV activity at 100 ppm.
[6] abbreviates: 72 h, 3 day curative, read-out: SEPTTR disease control, 3DC, LV activity at 121.5 g/H.
Setting [7] is: 24 h, 1 day protectant, read-out: PUCCRT disease control, 1DP, HV activity at 100 ppm.
Where [8] appears, read: 24 h, 1 day protectant, read-out: PUCCRT disease control, 1DP, LV activity at 121.5 g/H.
[9] abbreviates: 72 h, 3 day curative, read-out: PUCCRT disease control, 3DC, HV activity at 100 ppm.
Where [10] appears, read: 72 h, 3 day curative, read-out: PUCCRT disease control, 3DC, LV activity at 121.5 g/H.

Read-outs that look alike come from different tables or passages of the source. Where only a bound is given, the exact number is not on record here.

Consider `COc1cc[n+]([O-])c(C(=O)N[C@@H](C)C(=O)O[C@@H](C)C(c2ccc(C)cc2C)c2ccc(C)cc2C)c1O` [Compound 1, 2-(((S)-1-(((S)-1,1-bis(2,4-dimethylphenyl)propan-2-yl)oxy)-1-oxopropan-2-yl)carbamoyl)-3-hydroxy-4-methoxypyridine 1-oxide], for which the pest or weed control at 100 ppm in assay [1] (setting [3]) is above 80%; in assay [1] (setting [5]), above 80%; in assay [2] (setting [7]) it was above 80%; in assay [2] (setting [9]), at most 80%. Besides, the pest or weed control at 121.5 g/ha in assay [1] (setting [4]) is above 80%; in assay [1] (setting [6]) it was above 80%; in assay [2] (setting [8]), above 80%; in assay [2] (setting [10]) it was at most 80%.

In the case of `COc1cc[n+]([O-])c(C(=O)N[C@@H](C)C(=O)O[C@@H](C)[C@@H](c2ccccc2)c2ccc(F)cc2)c1O` [Compound 2], the pest or weed control at 100 ppm in assay [1] (setting [3]), in assay [1] (setting [5]), in assay [2] (setting [7]) and in assay [2] (setting [9]) was above 80% in each case. The pest or weed control at 121.5 g/ha in assay [1] (setting [4]), in assay [2] (setting [8]) and in assay [2] (setting [10]) was above 80% throughout.

Regarding `COc1ccc(C(c2ccc(OC)cc2F)[C@H](C)OC(=O)[C@H](C)NC(=O)c2c(O)c(OC)cc[n+]2[O-])c(F)c1` [Compound 3], the pest or weed control at 100 ppm in assay [1] (setting [3]) was above 80%; in assay [1] (setting [5]) it was at most 80%; in assay [2] (setting [7]), above 80%; in assay [2] (setting [9]) it was above 80%. Also, the pest or weed control at 121.5 g/ha is above 80% in assay [1] (setting [4]), at most 80% in assay [1] (setting [6]), above 80% in assay [2] (setting [8]) and at most 80% in assay [2] (setting [10]).

Regarding `COc1ccc(F)c(C(c2cc(OC)ccc2F)[C@H](C)OC(=O)[C@H](C)NC(=O)c2c(O)c(OC)cc[n+]2[O-])c1` [Compound 4], the values for the pest or weed control at 100 ppm in assay [1] (setting [3]), in assay [2] (setting [7]) and in assay [2] (setting [9]) were at most 80%, above 80% and at most 80%, respectively. Besides, the pest or weed control at 121.5 g/ha in assay [1] (setting [6]) is above 80%.

As for `COc1cc[n+]([O-])c(C(=O)N[C@@H](C)C(=O)O[C@@H](C)C(c2ccc(Cl)c(Cl)c2)c2ccc(Cl)c(Cl)c2)c1O` [Compound 5], the pest or weed control at 100 ppm was above 80% in assay [1] (setting [3]) and at most 80% in assay [1] (setting [5]). Also, the pest or weed control at 121.5 g/ha in assay [1] (setting [4]) is above 80%; in assay [1] (setting [6]), at most 80%; in assay [2] (setting [8]), at most 80%.

For `COc1cc[n+]([O-])c(C(=O)N[C@@H](C)C(=O)O[C@@H](C)C(c2ccc(Cl)c(F)c2)c2ccc(Cl)c(F)c2)c1O` [Compound 6], the pest or weed control at 100 ppm in assay [1] (setting [3]), in assay [1] (setting [5]) and in assay [2] (setting [7]) was above 80% in each case. Besides, the pest or weed control at 121.5 g/ha was above 80% in assay [1] (setting [4]), above 80% in assay [1] (setting [6]) and at most 80% in assay [2] (setting [8]).

As for `COc1cc[n+]([O-])c(C(=O)N[C@@H](C)C(=O)O[C@@H](C)C(c2ccc(Cl)c(C)c2)c2ccc(Cl)c(C)c2)c1O` [Compound 7], the pest or weed control at 121.5 g/ha in assay [1] (setting [4]) is above 80%; in assay [1] (setting [6]), above 80%; in assay [2] (setting [8]) it was above 80%; in assay [2] (setting [10]), at most 80%.

Turning to `CC[C@H](OC(=O)[C@H](C)NC(=O)c1c(O)c(OC)cc[n+]1[O-])[C@H](Oc1ccccc1)C(C)C` [Compound 8], the values for the pest or weed control at 121.5 g/ha in assay [1] (setting [6]), in assay [2] (setting [8]) and in assay [2] (setting [10]) were at most 80%, at most 80% and above 80%, respectively.

Turning to `COc1cc[n+]([O-])c(C(=O)N[C@@H](C)C(=O)O[C@@H](C)C(O)(c2ccc(Cl)c(F)c2)c2ccc(Cl)c(F)c2)c1O` [Compound 9], the pest or weed control at 100 ppm in assay [1] (setting [3]) was above 80%. In addition, the pest or weed control at 121.5 g/ha in assay [1] (setting [4]) is above 80%.

On to `COc1cc[n+]([O-])c(C(=O)N[C@@H](C)C(=O)O[C@H](C(C)C)[C@H](C)Oc2ccccc2)c1O` [Compound 10], for which the pest or weed control at 100 ppm was at most 80% in assay [1] (setting [3]), above 80% in assay [2] (setting [7]) and above 80% in assay [2] (setting [9]). The pest or weed control at 121.5 g/ha in assay [1] (setting [4]), in assay [2] (setting [8]) and in assay [2] (setting [10]) was above 80% throughout.

In the case of `COc1cc[n+]([O-])c(C(=O)N[C@@H](C)C(=O)O[C@@H](C)C(O)(c2ccc(Cl)c(Cl)c2)c2ccc(Cl)c(Cl)c2)c1O` [Compound 11], in assay [1] (setting [3]), the pest or weed control at 100 ppm was above 80%. Further, the pest or weed control at 121.5 g/ha in assay [1] (setting [4]) was above 80%; in assay [1] (setting [6]), at most 80%.

For the compound `COc1cc[n+]([O-])c(C(=O)N[C@@H](C)C(=O)O[C@@H](C)C(c2ccc(F)c(F)c2OC)c2ccc(F)c(F)c2OC)c1O` [Compound 12], the pest or weed control at 100 ppm in assay [1] (setting [3]) is above 80%; in assay [1] (setting [5]), above 80%; in assay [2] (setting [7]) it was above 80%; in assay [2] (setting [9]), at most 80%. The pest or weed control at 121.5 g/ha in assay [1] (setting [4]) was above 80%; in assay [1] (setting [6]), above 80%; in assay [2] (setting [8]), above 80%; in assay [2] (setting [10]), at most 80%.

As to `COc1cc[n+]([O-])c(C(=O)N[C@@H](C)C(=O)O[C@@H](C)C(c2ccc(F)cc2)c2ccc(F)cc2)c1O` [Compound 13], the pest or weed control at 100 ppm in assay [1] (setting [3]), in assay [1] (setting [5]), in assay [2] (setting [7]) and in assay [2] (setting [9]) was above 80% throughout. The pest or weed control at 121.5 g/ha in assay [1] (setting [4]) is above 80%; in assay [1] (setting [6]), above 80%; in assay [2] (setting [8]), above 80%; in assay [2] (setting [10]), at most 80%.

Turning to `COc1cc[n+]([O-])c(C(=O)N[C@@H](C)C(=O)O[C@@H](C)C(c2ccc(C)c(C)c2)c2ccc(C)c(C)c2)c1O` [Compound 15], the pest or weed control at 121.5 g/ha was above 80% in assay [1] (setting [4]), above 80% in assay [1] (setting [6]), at most 80% in assay [2] (setting [8]) and at most 80% in assay [2] (setting [10]).

With `COc1cc[n+]([O-])c(C(=O)N[C@@H](C)C(=O)O[C@@H](C)C(c2ccc(F)c(C)c2)c2ccc(F)c(C)c2)c1O` [Compound 17], the pest or weed control at 121.5 g/ha in assay [1] (setting [4]) is above 80%; in assay [1] (setting [6]), above 80%; in assay [2] (setting [8]), at most 80%; in assay [2] (setting [10]), at most 80%.

In the case of `COc1cc[n+]([O-])c(C(=O)N[C@@H](C)C(=O)O[C@@H](C)C(C)(c2ccccc2)c2ccccc2)c1O` [Compound 27], the pest or weed control at 100 ppm in assay [1] (setting [3]) and in assay [1] (setting [5]) was above 80% throughout. Moreover, the pest or weed control at 121.5 g/ha in assay [1] (setting [4]) and in assay [1] (setting [6]) was at most 80% throughout.

Take `COc1cc[n+]([O-])c(C(=O)N[C@@H](C)C(=O)O[C@@H](C)C(c2cccc(F)c2)c2cccc(F)c2)c1O` [Compound 35]: the pest or weed control at 121.5 g/ha in assay [1] (setting [4]) and in assay [1] (setting [6]) was at most 80% throughout.

With `COc1cc[n+]([O-])c(C(=O)N[C@@H](C)C(=O)O[C@@H](C)C(c2cccc(OC)c2OC)c2cccc(OC)c2OC)c1O` [Compound 40], the pest or weed control at 121.5 g/ha in assay [1] (setting [6]) is at most 80%.

As for `COc1ccc(F)cc1C(c1cc(F)ccc1OC)[C@H](C)OC(=O)[C@H](C)NC(=O)c1c(O)c(OC)cc[n+]1[O-]` [Compound 41], the pest or weed control at 121.5 g/ha in assay [1] (setting [4]) and in assay [1] (setting [6]) was at most 80% throughout.

(Values after US10111432B2, “Picolinamide N-oxide compounds with fungicidal activity” (Dow AgroSciences LLC, priority 2016, dated 2018).)
